Data as given in PubChem BioAssay AID588512 (NMMLSC, 2011).
Active and inactive are the calls of the source.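 Rule for the calls: active = viability below 80%, counted as toxic; inactive = the rest.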

The compounds below were run on HEK-293 viability, CellTiter-Glo ATP luminescence, 3 days (assay: viability loss in HEK-293 cells – cell-based, powder set 1, cytotoxicity control for GRK2 aptamer-displacement inhibitor project, late-stage follow-up (AID 588512)). Details: at 20 µM; active compounds read low.
In the case of `CCOc1ccc(CCNC(=O)CCS(=O)(=O)c2ccc(Br)cc2)cc1OCC`, the viability is reported as 123% (inactive). With `CCc1ccccc1NC(=O)CCS(=O)(=O)c1ccc(Br)cc1` the viability was 82.6% (inactive). With `Cc1ccccc1NC(=O)CCS(=O)(=O)c1ccc(Br)cc1` the viability was 128% (inactive). With `O=C(O)C1CC(=O)N(c2ccc3c(c2)OCCO3)C1` (stereo not given) the viability was 133% (inactive). In the case of `Cc1cccc(N2CCN(C(=O)CCS(=O)(=O)c3ccc(Br)cc3)CC2C)c1` (stereo not given), the viability is reported as 113% (inactive). In the case of `COc1ccc(CNC(=O)CCS(=O)(=O)c2ccc(Br)cc2)cc1`, the viability is reported as 95.2% (inactive). For `Cc1cc2ccccc2n1CCNC(=O)c1cccs1`, the viability was 109% (inactive). In the case of `O=C(CCS(=O)(=O)c1ccc(Br)cc1)Nc1cc(F)ccc1F`, the viability is reported as 110% (inactive). With `O=C(CCS(=O)(=O)c1ccc(Br)cc1)NCCc1ccc(Cl)cc1` the viability was 124% (inactive). Work on `Cc1cc(=O)[nH]c(SCC(=O)NCc2ccco2)n1` yielded a viability of 69.3%.
